Results from US20100216854A1, “1,3 AND 1,3,5 SUBSTITUTED IMIDAZOLES AS […]” (Eldrug S.A., priority 2007, published 2010).
Several values for one entry are separate records, joined by “and”; a condition that tells them apart may be missing. Equal entries are not always repeated. Marks after values point to notes of the source that are not given here. One block for each compound: values may come before it.

How the values were obtained:
α2-AR = experiment: Testing α2-agonist properties: BP response to norepinephrine bolus before and after compound in mice; type: in vivo, Swiss Webster mice; conditions: for suppression of the hypertensive effect of NE: NE bolus 30 minutes after injection of compound, higher dose (300) for E-P, 100 for H-P, H-Px and UK 14304; for BP after compound (100 μg/kg): iv 100 μg/kg; for BP after compound (300 μg/kg): iv 300 μg/kg
Method: Swiss Webster mice were anesthetized with 50 mg/kg pentobarbital and two lines were inserted, one in right iliac artery and the other in right iliac vein. Next morning the arterial line was connected to a blood pressure transducer and the mean BP was recorded with a Power lab/800 data acquisition system. The venous line was used for drug infusion.

[1] = biological target: T1, Angiotensin II (AII) receptor (Oryctolagus cuniculus, UniProt P34976); experiment: Hypotensive effect as ARBs in anesthetized rabbits made hypertensive by AII infusion; type: in vivo, New Zealand White rabbits; conditions: AII infusion 1 μg/min; for Mean BP after 1st bolus (300 ng/kg) / Mean BP after 1st bolus (150 ng/kg): IV bolus; for Mean BP after 1st bolus (300 ng/kg) / Mean BP after 2nd bolus (600 ng/kg) / Mean BP after 1st bolus (150 ng/kg) / Mean BP after 2nd bolus (300 ng/kg): mean ± S.D.; for Mean BP after 2nd bolus (600 ng/kg): second IV bolus 15 min after 300 ng/kg; for Mean BP after 2nd bolus (300 ng/kg): second IV bolus 15 min after 150 ng/kg
T1 construct: evaluated in the anesthetized rabbit preparation made hypertensive by intravenous infusion of AII; from tissue; host or cells: whole living New Zealand White rabbit (in vivo blood pressure)
T1 sequence (P34976 1-359): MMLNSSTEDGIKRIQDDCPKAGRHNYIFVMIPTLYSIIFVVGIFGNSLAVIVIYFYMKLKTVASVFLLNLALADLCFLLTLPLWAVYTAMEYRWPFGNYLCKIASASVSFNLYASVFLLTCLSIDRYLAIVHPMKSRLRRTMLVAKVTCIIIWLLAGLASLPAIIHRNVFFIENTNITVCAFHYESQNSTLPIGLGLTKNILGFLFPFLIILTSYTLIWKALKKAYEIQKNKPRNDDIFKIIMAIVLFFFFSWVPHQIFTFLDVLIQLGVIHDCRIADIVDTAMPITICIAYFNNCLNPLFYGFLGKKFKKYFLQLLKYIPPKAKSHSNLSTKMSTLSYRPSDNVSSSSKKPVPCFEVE
Method: The hypotensive effect of these compounds as ARBs was evaluated in the anesthetized rabbit preparation made hypertensive by intravenous infusion of AII. In brief, adult normotensive male New Zealand White rabbits weighing between 2.5 and 3.5 kg were anesthetized by pentobarbitone (30 mg/kg), intubated and mechanically ventilated with 100% oxygen using a respirator for small animals (MD Industries, Mobile, Ala., USA). The tidal volume was 15 ml and the rate was adjusted to keep blood gases within normal range. Two polyethylene catheters were inserted, one in the carotid artery for continuous blood pressure monitoring via a transducer attached to a multichannel recorder (Nihon-Kohden, Model 6000, Japan) and the other one in the jugular vein for the administrations of solution made by diluting angiotensin II (ANGII) (Hypertension, CIBA) in 5% dextrose at final concentration of 5 μg/ml. Based on previous testing with this rabbit preparation submaximal angiotensin II-dependent hypertension was induced by infusing angiotensin via a syringe pump (Harvard Apparatus Pump 22, Harvard Apparatus, Natick, Mass., USA) at a constant rate of 0.2 ml/min (1 μg/min). Five minutes after the establishment of hypertension, two cumulative IV boluses of each compound were given via an ear vein 15 minutes apart. After the second bolus mean blood pressure was recorded for 30 minutes and the experiment was terminated. […]
Compounds E-P, H—P, H-Px, were also tested for the AngII receptor blocker properties, by testing their ability to block the hypertensive effect of AngII, using adult normotensive male New Zealand white rabbits. […] Values represent the mean blood pressure and are given as mean±S.D.

[2] = Effect on mean BP in anesthetized normotensive rabbits (agonistic effect); type: in vivo; conditions: cumulative IV injections of 300-900 ng/kg
rat uterus = rat uterus assay; cited from earlier work
[3] = anesthetized rabbits; cited from earlier work
[4] = group mean, after 100 μg/kg compound, second NE bolus 30 min after compound
[5] = group mean, BP recorded after injection
[6] = individual mice, 100 μg/kg compound
[7] = individual mice, after 100 μg/kg compound

Mean BP after 1st bolus (300 ng/kg) [1]: 148 ± 23 mmHg
Mean BP after 2nd bolus (600 ng/kg) [1]: 131 ± 15 mmHg
Cumulative % drop in mean BP after the 2nd bolus ([1]; boluses 300 then 600 ng/kg): −24 ± 4%
Compound: NCCc1cncn1Cc1ccccc1-c1nnn[nH]1 [H-Px]
suppression of the hypertensive effect of NE (α2-AR): 42%
Δ2 = BP changes between second bolus of Norepinephrine and the new baseline BP after injection of compound (α2-AR; group mean, 100 μg/kg compound): 12.0 mmHg
BP after second bolus NE (0.12 μg/kg) (α2-AR; [4]): 128.3 mmHg
BP after compound (100 μg/kg) (α2-AR; [5]): 125.3 mmHg
Δ2 = BP changes between second bolus of Norepinephrine and the new baseline BP after injection of compound (α2-AR; [6]): 15* mmHg and 11.0 mmHg and 13.0 mmHg
BP after second bolus NE (0.12 μg/kg) (α2-AR; [7]): 114.0 mmHg and 136.0 mmHg and 135.0 mmHg
BP after compound (100 μg/kg) (α2-AR; individual mice): 129.0 mmHg and 125.0 mmHg and 122.0 mmHg
dose required to suppress NE effect (α2-AR; mice): 100 µg/kg
effect on mean BP [2]: did not significantly affect mean BP

Mean BP after 1st bolus (150 ng/kg) [1]: 148 ± 6 mmHg
Mean BP after 2nd bolus (300 ng/kg) [1]: 136 ± 3 mmHg
Cumulative % drop in mean BP after the 2nd bolus ([1]; boluses 150 then 300 ng/kg): −22 ± 5%
Compound: CCCCc1nc(Cl)c(CO)n1Cc1ccc(-c2ccccc2-c2nn[nH]n2)cc1 [Losartan]

Mean BP after 1st bolus (300 ng/kg) [1]: 149 ± 7 mmHg
Mean BP after 2nd bolus (600 ng/kg) [1]: 140 ± 3 mmHg
Cumulative % drop in mean BP after the 2nd bolus ([1]; boluses 300 then 600 ng/kg): −15 ± 4%
Compound: N=C(N)NCCc1cncn1Cc1ccccc1-c1nnn[nH]1 [E-P]
suppression of the hypertensive effect of NE (α2-AR): 45%
Δ2 = BP changes between second bolus of Norepinephrine and the new baseline BP after injection of compound (α2-AR; group mean, 100 μg/kg compound): 23.0 mmHg
Δ2 = BP changes between second bolus of Norepinephrine and the new baseline BP after injection of compound (α2-AR; group mean, 300 μg/kg compound): 12.3 mmHg
BP after second bolus NE (0.12 μg/kg) (α2-AR; [4]): 153.5 mmHg
BP after second bolus NE (0.12 μg/kg) (α2-AR; group mean, after 300 μg/kg compound): 124.0 mmHg
BP after compound (100 μg/kg) (α2-AR; [5]): 130.5 mmHg
BP after compound (300 μg/kg) (α2-AR; group mean): 111.7 mmHg
Δ2 = BP changes between second bolus of Norepinephrine and the new baseline BP after injection of compound (α2-AR; [6]): 32.0 mmHg and 14.0 mmHg
Δ2 = BP changes between second bolus of Norepinephrine and the new baseline BP after injection of compound (α2-AR; individual mice, 300 μg/kg compound): 8.0 mmHg and 13.0 mmHg and 16.0 mmHg
BP after second bolus NE (0.12 μg/kg) (α2-AR; [7]): 158.0 mmHg and 149.0 mmHg
BP after second bolus NE (0.12 μg/kg) (α2-AR; individual mice, after 300 μg/kg compound): 128.0 mmHg and 120.0 mmHg and 124.0 mmHg
BP after compound (100 μg/kg) (α2-AR; individual mice): 126.0 mmHg and 135.0 mmHg
BP after compound (300 μg/kg) (α2-AR; individual mice): 120.0 mmHg and 107.0 mmHg and 108.0 mmHg
dose required to suppress NE effect (α2-AR; mice): 300 µg/kg
effect on mean BP [2]: did not significantly affect mean BP

Compound: [Sar^1, Lys^3, Glu^5]ANG II
agonist activity (rat uterus): possesses agonist activity
agonist activity [3]: possesses agonist activity

Mean BP after 1st bolus (150 ng/kg) [1]: 141 ± 10 mmHg
Mean BP after 2nd bolus (300 ng/kg) [1]: 133 ± 11 mmHg
Cumulative % drop in mean BP after the 2nd bolus ([1]; boluses 150 then 300 ng/kg): −24 ± 7%
Compound: CCCCC1=NC2(CCCC2)C(=O)N1Cc1ccc(-c2ccccc2-c2nnn[nH]2)cc1 [Irbesartan]

Cumulative % drop in mean BP after the 2nd bolus ([1]; boluses 150 then 300 ng/kg): −41 ± 3%
Compound: CCOc1nc2cccc(C(=O)O)c2n1Cc1ccc(-c2ccccc2-c2nnn[nH]2)cc1 [Candesartan]

Compound: Brc1c(NC2=NCCN2)ccc2nccnc12 [UK 14304, reference compound]
suppression of the hypertensive effect of NE (α2-AR): 48%
Δ2 = BP changes between second bolus of Norepinephrine and the new baseline BP after injection of compound (α2-AR; group mean, 100 μg/kg compound): 15.8 mmHg
BP after second bolus NE (0.12 μg/kg) (α2-AR; [4]): 125.5 mmHg
BP after compound (100 μg/kg) (α2-AR; [5]): 109.8 mmHg
Δ2 = BP changes between second bolus of Norepinephrine and the new baseline BP after injection of compound (α2-AR; individual mice, 100 μg/kg compound, listed as UK): 20.0 mmHg and 12.0 mmHg and 7.0 mmHg and 24.0 mmHg
BP after second bolus NE (0.12 μg/kg) (α2-AR; individual mice, after 100 μg/kg compound, listed as UK): 125.0 mmHg and 123.0 mmHg and 115.0 mmHg and 139.0 mmHg
BP after compound (100 μg/kg) (α2-AR; individual mice, listed as UK): 105.0 mmHg and 111.0 mmHg and 108.0 mmHg and 115.0 mmHg
decrease in BP (α2-AR; mice, 100 Ilg/kg, control α2-agonist): 15 mmHg
